Assay results: patent US10149887B2, “Peptides and peptidomimetics in combination with t cell activating and/or checkpoint inhibiting agents for cancer treatment” (CanBas Co., Ltd., priority 2015, dated 2018)
Read-outs that look alike come from different tables or passages of the source. Square brackets hold non-standard residues; d marks the D form. Peptide text beside a SMILES is read from it. dPhe(F5) = N[C@H](Cc1c(F)c(F)c(F)c(F)c1F)C(=O)O; dBpa = N[C@H](Cc1ccc(C(=O)c2ccccc2)cc1)C(=O)O; dCha = N[C@H](CC1CCCCC1)C(=O)O

Legend:
[1] = Maximal tolerated dose in mouse by single injection; conditions: in vivo, observed for a week
Jurkat cells [2] = experiment: G2 checkpoint abrogation, flow cytometry of bleomycin treated Jurkat cells; assay type: cell-based, human
HUVEC [3] = experiment: G2 checkpoint abrogation by CBP501 combined with cis-platin, flow cytometry; assay type: cell-based, human; conditions: umbilical vein endothelium, cis-platin 3 μg/ml 3 hr, then 45 hr
Procedure: (§1) The medium was aspirated, fresh medium without these compounds was added and the cells were incubated for an additional 45 hr. The cells including floating cells were harvested using trypsin-EDTA solution, incubated with Krishan's solution and analyzed for DNA content by flow cytometry as previously described.

Jurkat cells [4] = experiment: Side effect of peptide used alone: Jurkat cell cycle disturbance (flow cytometry); assay type: cell-based; conditions: dose that produced Jurkat cell cycle disturbance, peptide alone
Method in brief: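 Cell-cycle profiles were obtained by flow cytometry after propidium iodide staining in Krishan's solution for 1 hr at 4 °C. The value is the peptide dose given alone that disturbed the cell cycle, seen as significant SubG1 (dead) cells or unusually variable DNA content.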

HUVEC [5] = experiment: Growth of normal human umbilical endothelial cells (HUVEC); assay type: cell-based; conditions: peptide by itself
Procedure: Similar studies were performed using normal human umbilical endothelial cells (HUVEC).

[6] = cited from earlier work
neutrophils = experiment: NET formation by activated neutrophils (elastase activity); assay type: cell-based, human; conditions: 1 μM CBP501; PMA, A23187 or LPS
Source text: Referring to FIG. 17, Neutrophils were purified with EasySep neutrophil enrichment kit (Stemcell technol.) from human peripheral blood after removal of red blood cells with Hetasep (Stemcell technol.).

[7] = system: CBP501-sensitive human cancer cell lines; experiment: Intracellular accumulation of CDDP; assay type: cell-based
CT26WT = experiment: Analysis of tumor infiltrating lymphocytes in CT26WT tumors (flow cytometry); assay type: in vivo, mouse; conditions: day 11
Procedure: CT26WT were subcutaneously inoculated into the left flank of female Balb/c mice. […] Then, tumors were extracted from mice on day 11, and digested with triple enzyme mix (collagenase, hyaluronidase and DNase) to obtain single cell suspension. The cells were treated with FcR blocker and stained with specific antibody for multi-color flow cytometry analysis including CD4, CD8, CD45, CD11b, Ly6G, Ly6C, F4/80, MHC class II and CD206. Quantitative data (FIG. 32) are shown as mean values with SEM (n=3-4 mice/group). *: p<0.05, **: p<0.01, n.s.: not significant (unpaired, 2-tailed student's t-test), as compaired with cells from vehicle-treated or PD-1-treated tumor.

Jurkat cells [8] = experiment: M phase checkpoint abrogation / non specific toxicity, colchicine treated Jurkat cells; assay type: cell-based
MK45 = experiment: G2 checkpoint abrogation by CBP501 combined with cis-platin, flow cytometry; assay type: cell-based; conditions: MK45, stomach; cis-platin 3 μg/ml 3 hr, then 45 hr
Procedure: as §1

SW620 = experiment: as above; assay type: cell-based; conditions: SW620, colon; cis-platin 3 μg/ml 3 hr, then 45 hr
Procedure: as §1

SK-OV-3 = experiment: as above; assay type: cell-based; conditions: SK-OV-3, ovary, hMLH1; cis-platin 3 μg/ml 3 hr, then 45 hr
Procedure: as §1

SW900 = experiment: as above; assay type: cell-based; conditions: SW900, lung, SCC; cis-platin 3 μg/ml 3 hr, then 45 hr
Procedure: as §1

HT-29 = experiment: as above; assay type: cell-based; conditions: HT-29, colon; cis-platin 3 μg/ml 3 hr, then 45 hr
Procedure: as §1

DU-145 = experiment: as above; assay type: cell-based; conditions: DU-145, prostate, MLH1; cis-platin 3 μg/ml 3 hr, then 45 hr
Procedure: as §1

NCI-H226 = experiment: as above; assay type: cell-based; conditions: NCI-H226, lung, SCC; cis-platin 3 μg/ml 3 hr, then 45 hr
Procedure: as §1

Panc1 = experiment: as above; assay type: cell-based; conditions: Panc1, pancreas; cis-platin 3 μg/ml 3 hr, then 45 hr
Procedure: as §1

MCF-7 = experiment: as above; assay type: cell-based; conditions: MCF-7, mammary gland; cis-platin 3 μg/ml 3 hr, then 45 hr
Procedure: as §1

HCT116 = experiment: as above; assay type: cell-based; conditions: HCT116, colon, hMLH1; cis-platin 3 μg/ml 3 hr, then 45 hr
Procedure: as §1

Which MTD at 1 week ([1]; ip, single intra-peritoneal injection, read-out: MTD (ip)) does the source give for N=C(N)NCCC[C@@H](NC(=O)[C@@H](CCCNC(=N)N)NC(=O)[C@@H](CCC(N)=O)NC(=O)[C@@H](CCCNC(=N)N)NC(=O)[C@@H](CCCNC(=N)N)NC(=O)[C@@H](CCCNC(=N)N)NC(=O)[C@@H](CC1CCCCC1)NC(=O)[C@@H](Cc1c(F)c(F)c(F)c(F)c1F)NC(=O)[C@@H](CO)NC(=O)[C@@H](Cc1c[nH]c2ccccc12)NC(=O)[C@@H](CO)NC(=O)[C@H](N)Cc1ccc(C(=O)c2ccccc2)cc1)C(=O)O [CBP501, (d-Bpa)(d-Ser)(d-Trp)(d-Ser)(d-Phe-2,3,4,5,6-F)(d-Cha)(d-Arg)(d-Arg)(d-Arg)(d-Gln)(d-Arg)(d-Arg)] (H-[dBpa][dS][dW][dS][dPhe(F5)][dCha][dR][dR][dR][dQ][dR][dR]-OH; N-terminus and C-terminus assumed) here?
Its MTD at 1 week is 98.8 mg/kg.

What about the MTD at 1 week ([1]; single intravenous injection, read-out: MTD (iv)) of the same molecule?
The MTD at 1 week was 10 mg/kg.

And the “G2 checkpoint abrogating activity (in words)” value (Jurkat cells [2]; Jurkat cells with bleomycin 40 μg/ml)?
The value was “abrogated in a dose dependent manner”.

What about the G2 abrogating dose (Jurkat cells [2]; dose with 40 μg/ml bleomycine giving detectable G2 checkpoint abrogation, 24 hours) of the same molecule?
The G2 abrogating dose was at least 0.39 µM.

What about the “G2 checkpoint abrogating dose of CBP501, cis-platin” value (“G2 checkpoint abrogating dose” below) (HUVEC [3]) of the same molecule?
Its value is over 50 µM.

And the “Appearance of side effect when used alone” value (Jurkat cells [4])?
Its value is over 50 µM.

What about the “Growth of normal cells (HUVEC)” value (HUVEC [5]) of the same molecule?
The value was “does not affect the growth of HUVEC cells”.

What about the “Patients with dose limiting allergic reactions (grade 3)” value ([6]; CBP501 36.4 mg/m^2 and cisplatin 75 mg/m^2) of the same molecule?
The value was “two out of six”.

And the “MTD of CBP501 in combination with cisplatin” value ([6]; with cisplatin 75 mg/m^2, once every 21 days)?
The value was 24.3 mg/m^2.

And the “NET formation by activated neutrophils” value (neutrophils)?
The value was “increased NET formation”.

And the “Intracellular accumulation of CDDP, CDDP combined with CBP501 vs CDDP alone” value [7]?
Its value is 1.5 to 3 times.

What about the “CD8 (=CD45+CD8+) infiltration at tumor site, combined with CDDP and anti-PD1 antibody” value (CT26WT; CDDP 4 mg/kg + CBP501 6 mg/kg + anti-PD1 400 ug/mouse) of the same molecule?
Its value is “statistically significant”.

And the “CD8 (=CD45+CD8+) infiltration at tumor site, combined with CDDP” value (CT26WT; CDDP 4 mg/kg i.v. + CBP501 6 mg/kg i.v.)?
Its value is “tended to increase”.

What about the “M2 macrophages (=F4/80+CD206+) in tumor” value (CT26WT; combined with CDDP or CDDP plus anti-PD1 antibody) of the same molecule?
Its value is “decreased M2 macrophages”.

What about the “Non specific toxicity (M checkpoint abrogation), dose up to which absent” value (Jurkat cells [8]; 0.5 μg/ml colchicine, unchanged percentage of M phase arrested cells) of the same molecule?
Its value is over 50 µM.

And the “M phase cell cycle arrest and/or non specific toxicity induced by colchicine (in words)” value (Jurkat cells [8]; FIG. 12)?
The value was “does not affect M phase cell cycle arrest and/or non specific toxicity induced by colchicine”.

What about the “Appearance of side effect when used with Colchicine” value (Jurkat cells [8]; dose with 5 μg/ml colchicine that produced Jurkat cell cycle disturbance, 24 hours) of the same molecule?
The value was over 25 µM.

What about the “G2 checkpoint abrogating dose” value (MK45) of the same molecule?
The value was over 10 µM.

What about the “G2 checkpoint abrogating dose” value (SW620) of the same molecule?
Its value is over 10 µM.

What about the “G2 checkpoint abrogating dose” value (SK-OV-3) of the same molecule?
The value was 50 µM.

And the “G2 checkpoint abrogating dose” value (SW900)?
The value was over 10 µM.

And the “G2 checkpoint abrogating dose” value (HT-29)?
Its value is under 2 µM.

What about the “G2 checkpoint abrogating dose” value (DU-145) of the same molecule?
The value was 0.4 µM.

What about the “G2 checkpoint abrogating dose” value (NCI-H226) of the same molecule?
The value was 0.4 µM.

And the “G2 checkpoint abrogating dose” value (Panc1)?
Its value is over 10 µM.

And the “G2 checkpoint abrogating dose” value (MCF-7)?
The value was over 10 µM.

What about the “G2 checkpoint abrogating dose” value (HCT116) of the same molecule?
Its value is under 2 µM.
